Consider one substance from patent US20110275637A1, “PIPERAZINE DERIVATIVES AND THEIR USE AS LEPTIN RECEPTOR MODULATORS” (priority 2008, published 2011).

Test [1] deals with JEG-3 cells. As to the kind of experiment: JEG-3 protocol: [3H]-thymidine incorporation / proliferation (leptin assay in non-recombinant system). Format: cell-based. Particulars: FIG. 6. The text has this:
Leptin Assay in Non-Recombinant System
It seems that overexpression of the receptor (as well as the possibility for different drugs to act on different parts of the signaling pathway triggered by leptin association with its receptor) results in most cases in the absence of activity of the drugs tested.
The leptin receptor expression in non-recombinant system is often fluctuating and care must be given to identify a system where signal stability remains within experiments. Using such a system, leptin receptor antagonist mimetics could be identified by evaluating is their action vs. leptin (see below).
Leptin is produced chiefly in adipose cells, but in humans, mRNA encoding leptin is also present in the placenta. Here, leptin might play an important proliferative role in the microvasculature. The possibility to use this hypothesis in a native cell line was evaluated.
In JEG-3 cells (choriocarcinoma cell line) leptin is able to stimulate proliferation up to 3 fold (Biol. Reprod. (2007) 76: 203-10). […] The radioactivity incorporated by the cells is an index of their proliferative activity and is measured in counts per minute (CPM) with a liquid scintillation beta counter. […]

In test [2] the test system is JEG-3 cells. To be noted: Biol. Reprod. (2007) 76: 203-10; cited from earlier work.

Turning to “Leptin: a hormone synthesized in fat cells that is believed to act in the hypothalamus to reduce food intake and body weight”, in the test on JEG-3 cells [1] (JEG-3 cells (choriocarcinoma cell line), read-out: EC50, concentration-dependent increase in [3H]-thymidine incorporation), the EC50 worked out at 2.1 nM. Besides, the “concentration of maximal effect on [3H]-thymidine incorporation” value with JEG-3 cells [1] (JEG-3 cells) is recorded as 100 nM. Further, the stimulation of proliferation result with JEG-3 cells [2] is reported as “up to 3 fold”.
